Common to all, as to assay: ≥ marks a high value that may be exact or a test limit, other limits are often not marked, values filed in µg/mL are converted to µM
For experiment [1], the system named is Escherichia coli D31.
Experiment [2] deals with Listeria fleischmannii DSM 24998.
For experiment [3], the system named is Listeria grayi DSM 20601.
In experiment [4] the test system is Listeria monocytogenes DSM 20600.
Experiment [5] concerns Micrococcus luteus DSM 20030.
Experiment [6] relates to Pseudomonas aeruginosa PAO1.
For experiment [7], the system named is Staphylococcus aureus ATCC 29213.
Experiment [8] concerns Bacillus atrophaeus BM013.
The test system of experiment [9] is Staphylococcus aureus WKZ-2.
In experiment [10] the test system is Pseudomonas aeruginosa ATCC 27853.
Experiment [11] has as its system Escherichia coli ATCC 25922.
The subject of experiment [12] is Bacillus licheniformis ATCC 21424.
In experiment [13] the test system is Salmonella enterica subsp. enterica serovar Enteritidis 706 RIVM.
Experiment [14] concerns Staphylococcus aureus MR.
The subject of experiment [15] is Staphylococcus aureus.
Experiment [16] relates to Escherichia coli.
Experiment [17] has as its system Klebsiella pneumoniae.
Experiment [18] deals with Acinetobacter baumannii.
Experiment [19] has as its system Staphylococcus aureus NCTC 10442.
Experiment [20] deals with Acinetobacter baumannii ATCC BAA-747.
Experiment [21] relates to Klebsiella pneumoniae ATCC 700603.
Experiment [22] relates to Shigella boydii.
Experiment [23] has as its system Streptococcus agalactiae.
For experiment [24], the system named is Streptococcus pyogenes.
The subject of experiment [25] is Bacillus subtilis ATCC 6633.
Experiment [26] has as its system Enterobacter cloacae.
Experiment [27] deals with Morganella morganii.
Experiment [28] has as its system Stenotrophomonas maltophilia ATCC 13637.
The subject of experiment [29] is Micrococcus luteus ATCC 10240.
For experiment [30], the system named is Candida albicans ATCC 90112.
Experiment [31] relates to Enterococcus faecalis.
Experiment [32] has as its system Staphylococcus aureus ATCC 25923.
Experiment [33] has as its system Saccharomyces cerevisiae.
Experiment [34] concerns Staphylococcus aureus NBRC 12732.
The subject of experiment [35] is Serratia marcescens.
In experiment [36] the test system is Escherichia coli NBRC 14237.
Experiment [37] has as its system Saccharomyces cerevisiae NBRC 10217.
Experiment [38] has as its system Proteus mirabilis.
Experiment [39] has as its system Micrococcus luteus NBRC 12708.

Converted amounts (≈) assume the structure as drawn. A value given as a limit tells only on which side of the number the result lay.

What is called MIC is the lowest concentration that inhibits growth of the organism.

As to `CC[C@H](C)[C@H](NC(=O)[C@H](C)NC(=O)[C@H](CO)NC(=O)[C@H](CCCCN)NC(=O)[C@@H]1CCCN1C(=O)[C@@H](NC(=O)[C@H](CCCCN)NC(=O)[C@H](CC(C)C)NC(=O)[C@H](CO)NC(=O)[C@H](CC(C)C)NC(=O)[C@H](CCCCN)NC(=O)[C@H](CC(C)C)NC(=O)[C@H](Cc1ccccc1)NC(=O)[C@@H]1CCCN1C(=O)[C@@H](N)Cc1ccccc1)[C@@H](C)CC)C(=O)N[C@@H](CCCCN)C(=O)N[C@@H](CO)C(=O)N[C@@H](C)C(=O)N[C@H](C(=O)N[C@@H](CCCCN)C(=O)N[C@@H](CCCN=C(N)N)C(=O)N[C@@H](CC(C)C)C(N)=O)[C@@H](C)CC` [FPFLKLSLKIPKSAIKSAIKRL], the minimal inhibitory concentration (MIC) in experiment [1] came out at 8 µM (≈ 20 µg/mL); in experiment [2], 30 µM (≈ 74.9 µg/mL); in experiment [3], 8 µM (≈ 20 µg/mL); in experiment [4], 30 µM (≈ 74.9 µg/mL); in [5], 0.25 µM (≈ 0.625 µg/mL).

Take `CC[C@H](C)[C@H](NC(=O)[C@H](Cc1ccccc1)NC(=O)[C@H](CCCCN)NC(=O)[C@H](CC(C)C)NC(=O)[C@H](CCCCN)NC(=O)CNC(=O)[C@@H]1CCCN1C(=O)[C@H](CCCCN)NC(=O)[C@H](CC(C)C)NC(=O)[C@H](C)NC(=O)[C@@H](NC(=O)[C@H](Cc1cnc[nH]1)NC(=O)[C@@H]1CCCN1)C(C)C)C(=O)N[C@H](C(=O)N1CCC[C@H]1C(=O)N[C@@H](CO)C(=O)N1CCC[C@H]1C(=O)N[C@@H](CCCCN)C(=O)N[C@@H](CCCN=C(N)N)C(=O)N1CCC[C@H]1C(=O)N[C@H](C(=O)N[C@@H](CCCCN)C(=O)N[C@@H](CC(C)C)C(=O)N[C@@H](CC(C)C)C(=O)N[C@@H](CO)C(=O)NCC(=O)O)C(C)C)[C@@H](C)CC` [PHVALKPGKLKFIIPSPKRPVKLLSG]: the minimal inhibitory concentration (MIC) in experiment [6] is 20 µM (≈ 56.4 µg/mL); in experiment [7], more than 40 µM; in experiment [8] it was 2.5 µM (≈ 7.05 µg/mL); in experiment [9], not below 40 µM; in experiment [10], more than 40 µM; in experiment [11] it was 10 µM (≈ 28.2 µg/mL). The figures for the MIC in experiment [12] and in experiment [13] were 1.25 µM (≈ 3.53 µg/mL) and not below 40 µM, respectively.

For `CC[C@H](C)[C@H](NC(=O)[C@H](CCSC)NC(=O)[C@H](C)NC(=O)[C@@H]1CCCN1C(=O)[C@@H](NC(=O)[C@@H](NC(=O)[C@H](CCCCN)NC(=O)[C@@H](NC(=O)[C@H](CC(C)C)NC(=O)CNC(=O)CNC(=O)[C@H](CC(C)C)NC(=O)[C@@H](N)Cc1ccccc1)[C@@H](C)CC)[C@@H](C)CC)C(C)C)C(=O)N[C@@H](CS)C(=O)N[C@@H](C)C(=O)N[C@H](C(=O)N[C@H](C(=O)N[C@@H](CCCCN)C(=O)N[C@@H](CCCCN)C(=O)N[C@@H](CS)C(=O)N[C@@H](Cc1cnc[nH]1)C(=O)N[C@@H](Cc1cnc[nH]1)C(=O)N[C@@H](Cc1cnc[nH]1)C(=O)N[C@@H](Cc1cnc[nH]1)C(=O)N[C@@H](Cc1cnc[nH]1)C(=O)N[C@@H](Cc1cnc[nH]1)C(=O)O)[C@@H](C)O)C(C)C` [FLGGLIKIVPAMICAVTKKCHHHHHH], the MIC in experiment [14] was 2.73 µM (≈ 8 µg/mL); in experiment [15], 5.46 µM (≈ 16 µg/mL); in [16] it was 7.73 µM (≈ 22.6 µg/mL); in experiment [10], 43.7 µM (≈ 128 µg/mL); in [11] it was 10.9 µM (≈ 32 µg/mL); in experiment [17], 21.9 µM (≈ 64 µg/mL). Also, the MIC came to 10.9 µM (≈ 32 µg/mL) in [18], 5.46 µM (≈ 16 µg/mL) in [19], 21.9 µM (≈ 64 µg/mL) in experiment [20] and 43.7 µM (≈ 128 µg/mL) in experiment [21].

Consider `CC[C@H](C)[C@H](NC(=O)[C@H](CC(C)C)NC(=O)[C@@H]1CCCN1C(=O)[C@H](CC(C)C)NC(=O)[C@H](CCCCN)NC(=O)[C@H](CCCCN)NC(=O)[C@H](CC(C)C)NC(=O)[C@H](CC(C)C)NC(=O)[C@H](C)NC(=O)[C@@H](NC(=O)[C@H](Cc1ccccc1)NC(=O)CN)C(C)C)C(=O)N[C@@H](CC(C)C)C(=O)N[C@@H](CCCCN)C(=O)N[C@@H](Cc1cnc[nH]1)C(=O)N[C@@H](CC(C)C)C(=O)N[C@@H](Cc1cnc[nH]1)C(N)=O` [GFVALLKKLPLILKHLH], for which the MIC in experiment [22] amounted to 3.75 µM (≈ 7.27 µg/mL); in experiment [23] it was 3.75 µM (≈ 7.27 µg/mL); in [24] it was 3.75 µM (≈ 7.27 µg/mL); in [25], 3.75 µM (≈ 7.27 µg/mL); in experiment [26], 7.5 µM (≈ 14.5 µg/mL); in experiment [27] it was 30 µM (≈ 58.2 µg/mL). Further, the MIC was 3.75 µM (≈ 7.27 µg/mL) in experiment [28]; 1.9 µM (≈ 3.69 µg/mL) in experiment [29]; 7.5 µM (≈ 14.5 µg/mL) in experiment [10]; 3.75 µM (≈ 7.27 µg/mL) in [11]; 7.5 µM (≈ 14.5 µg/mL) in experiment [30]; 15 µM (≈ 29.1 µg/mL) in experiment [31]. Further, the MIC in experiment [32] was 15 µM (≈ 29.1 µg/mL); in experiment [17], 3.75 µM (≈ 7.27 µg/mL); in experiment [33], 3.75 µM (≈ 7.27 µg/mL); in experiment [34], 1.57 µM (≈ 3.05 µg/mL); in experiment [35], 7.5 µM (≈ 14.5 µg/mL); in [18], 3.75 µM (≈ 7.27 µg/mL). Besides, the MIC in experiment [36] is 3.12 µM (≈ 6.05 µg/mL); in experiment [37] it was 6.25 µM (≈ 12.1 µg/mL); in experiment [38], 30 µM (≈ 58.2 µg/mL); in experiment [39], 3.12 µM (≈ 6.05 µg/mL).

Source of the values: DBAASP.
